# Data published in patent US9878007B2, “Syndecan peptides and polypeptides as inhibitors of vascular endothelial growth factor receptor-2 (VEGFR2) and very late antigen-4 (VLA-4)” (Wisconsin Alumni Research Foundation, priority 2015, dated 2018).
# No end group written: not given here.
# Key:
# Type in all cases: cell-based
# [1] = target: T1, VEGFR2 (Homo sapiens, UniProt P35968); assay: VEGFR2 activation (pY1054/1059 immunoblot) in HPSE^low CAG cells; conditions: 0.3 μM peptide, 2.5 h
# T1 construct: endogenous in cells; host or cells: CAG human myeloma cells (HPSE^low = empty vector; HPSE^high = human HPSE cDNA)
# T1 sequence (P35968 20-1356): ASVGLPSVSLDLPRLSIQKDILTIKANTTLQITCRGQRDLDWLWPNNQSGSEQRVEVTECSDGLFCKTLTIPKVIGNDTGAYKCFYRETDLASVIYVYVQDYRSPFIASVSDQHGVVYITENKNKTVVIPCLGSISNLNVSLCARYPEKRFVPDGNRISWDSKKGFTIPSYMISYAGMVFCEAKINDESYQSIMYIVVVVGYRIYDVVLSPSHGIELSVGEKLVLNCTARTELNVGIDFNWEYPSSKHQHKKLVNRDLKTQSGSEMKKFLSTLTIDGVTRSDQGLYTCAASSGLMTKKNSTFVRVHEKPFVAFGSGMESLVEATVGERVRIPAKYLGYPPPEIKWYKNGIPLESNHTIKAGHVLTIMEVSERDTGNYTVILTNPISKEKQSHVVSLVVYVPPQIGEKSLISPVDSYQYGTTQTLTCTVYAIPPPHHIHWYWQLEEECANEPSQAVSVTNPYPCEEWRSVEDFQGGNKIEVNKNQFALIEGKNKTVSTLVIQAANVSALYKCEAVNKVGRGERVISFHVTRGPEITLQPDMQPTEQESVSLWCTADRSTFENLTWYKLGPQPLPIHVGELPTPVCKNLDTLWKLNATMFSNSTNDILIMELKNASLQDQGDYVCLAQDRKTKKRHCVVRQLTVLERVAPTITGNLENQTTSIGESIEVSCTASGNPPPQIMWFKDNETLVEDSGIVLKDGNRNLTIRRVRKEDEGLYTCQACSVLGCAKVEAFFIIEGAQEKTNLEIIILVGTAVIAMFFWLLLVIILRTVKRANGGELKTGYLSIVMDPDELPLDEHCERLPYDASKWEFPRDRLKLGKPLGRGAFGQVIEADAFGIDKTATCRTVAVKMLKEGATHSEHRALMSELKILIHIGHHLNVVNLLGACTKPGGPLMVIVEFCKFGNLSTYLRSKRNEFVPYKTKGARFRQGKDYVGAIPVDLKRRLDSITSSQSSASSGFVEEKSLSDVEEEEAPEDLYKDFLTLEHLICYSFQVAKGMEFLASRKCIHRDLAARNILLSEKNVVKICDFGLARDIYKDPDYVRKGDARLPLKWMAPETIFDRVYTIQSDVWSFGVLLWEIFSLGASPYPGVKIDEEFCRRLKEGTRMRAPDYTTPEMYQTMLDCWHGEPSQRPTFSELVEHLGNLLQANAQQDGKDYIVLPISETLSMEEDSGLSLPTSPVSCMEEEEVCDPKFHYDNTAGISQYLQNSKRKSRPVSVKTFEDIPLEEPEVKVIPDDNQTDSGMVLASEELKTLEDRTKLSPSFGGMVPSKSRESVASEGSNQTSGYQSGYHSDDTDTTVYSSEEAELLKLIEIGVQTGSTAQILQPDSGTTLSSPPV
# Procedure: FIGS. 4A-C. HPSE expression leads to activation of VEGFR2 when α4-integrin engages ligand. (FIG. 4A) HPSE^low and HPSE^high cells treated with or without 1 μM Vandetanib, 20 ng/ml VEGF, or 20 μg/ml VEGFR2 blocking antibody are plated on VCAM-1 to observe cell spreading (Bar=50 μm); (FIG. 4B) HPSE^high cells plated on FN were treated with MMP-9 blocking antibody or 1 μM Vandetanib in the absence or presence of 0.3 μM S1ED^210-236 (Bar=50 μm); (FIG. 4C) HPSE^low cells were kept in suspension or were seeded on FN in the absence or presence of 0.3 μM S1ED^210-236 for 2.5 h. Cell lysates were immunoblotted with antibodies against pY1054/1059 in VEGFR2 as a marker of VEGFR2 activation. Actin is shown as a loading control.
# The inventors next questioned whether VEGFR2 is upstream (e.g., responsible for shedding) or downstream (e.g., a target of the shed Sdc1) of Sdc1 shedding by testing whether or not Sdc1 mimetic peptide could rescue Vandetinib-blocked spreading. HPSE^high cell spreading on FN was inhibited using either anti-MMP9 blocking antibody or Vandetanib in the presence or absence of S1ED^210-236. […] VEGFR2 activation was assessed by measuring autophosphorylation at Tyr1054/1059 in its kinase domain (Lamalice et al., 2007).
# [2] = system: HMEC-1 cells; assay: Attachment and spreading of HMEC-1 cells on IIICS; conditions: plated on IIICS; 30 μM peptides, 125 μg/ml SST0001, 10 μg/ml MMP9 blocking antibody
# Procedure: FIGS. 8A-H. HPSE mediated the Sdc1-coupled VEGFR2 complex in endothelial cells induces angiogenesis. (FIG. 8A) Lysates from HPSE^low, HPSE^high and HMEC-1 cells are probed by immunoblotting for expression of HPSE. (FIG. 8B) HMEC-1 cells were seeded at equal density and grown in serum-free media for 24 hr in the absence or presence of 125 μg/ml of the HPSE inhibitor SST0001. After 24 hr, conditioned media were harvested, and the level of shed Sdc1 in the conditioned medium from each condition was determined by immunoblotting. (FIG. 8C) HMEC-1 cell lysate was incubated overnight with glutathione beads coated with GST or GST-S1ED. Capture of VLA-4 or VEGFR2 was detected by immunoblotting. (FIG. 8D) HMEC-1 cells were plated on IIICS for 3 hr and double stained for VLA-4 and Sdc1, VEGFR2 and Sdc1, or VLA-4 and VEGFR2. (FIG. 8E) HMEC-1 cells were treated with DMSO, VLA-4 blocking antibody P1H4, β1-integrin blocking antibody mAb13, 10 μg/ml MMP9 blocking antibody, 125 μg/ml HPSE inhibitor SST0001, Vandetanib, VEGFR2 blocking antibody, 30 μM S1ED^210-233 or 30 μM S1ED^214-240 and then plated on IIICS. Images were taken from random field with 200× magnification for counting attached and spread cells. (FIG. 8F) HMEC-1 cells were plated on IIICS in the presence of 10 μM of S1ED^210-236, S1ED^210-233, S1ED^215-240, and S1ED^214-240. […]
# [3] = system: P3x63Ag8 mouse myeloma cells; assay: Invasion of P3x63Ag8 myeloma cells through FN-coated filters; conditions: 16 hr
# Procedure: FIG. 7A-B. S1ED^214-236, specific for VEGFR2 coupling to VLA-4, blocks myeloma cell invasion but not adhesion. (FIG. 7A) P3x63Ag8 mouse myeloma cells are plating on the VLA-4 ligand FN in the presence or absence of 30 uM S1ED^210-233 (SEQ ID No: 4) or S1ED^214-236 (SEQ ID No: 7) for 2.5 hr. (FIG. 7B) P3x63Ag8 myeloma cells are plated on FN-coated filters in the presence of HPSE inhibitor OGT2115, VLA-4 blocking antibody P1H4, VEGFR2 inhibitor Vandetanib or S1ED^210-233 or S1ED^214-236 and allowed to migrate through the filter for 16 hr. Small black dots are the pores in the filter.
# The bottom chambers of Transwell filter chambers (8 μm pores; Corning) were coated with 40 μg/ml of FN. Cells (5×10^5 in 0.2 ml plating medium) were placed in the upper chamber and incubated for 16 hr at 37° C. in the CO2 incubator. After incubation, cells in the upper chamber were removed and cells on the bottom side of the filter were fixed in 4% paraformaldehyde (PFA) and stained with 0.1% Crystal Violet before imaging. Cells from at least five random fields were counted.
Substance,VEGFR2 phosphorylation at Tyr1054/1059 ([1]; HPSE^low cells in suspension),VEGFR2 phosphorylation at Tyr1054/1059 ([1]; HPSE^low cells plated on FN),VLA-4 dependent spreading of HMEC-1 cells [2],invasion / migration of P3X cells through FN-coated filters [3]
DFTFETSGENTAVVAVEPDRRNQSPVD [S1ED^210-236],no alteration of VEGFR2 phosphorylation,causes VEGFR2 phosphorylation in HPSE^low cells plated on FN,–,–
"S1ED^210-233: syndecan-1 ectodomain peptide, residues 210-233 (SEQ ID NO: 4) (DFTFETSGENTAVVAVEPDRRNQS)",–,–,prevented,blocked by either peptide
